This passage reports IC50 results from US11225469B2, “Inhibitors of phosphoglycerate dehydrogenase (PHGDH) and uses thereof” (Whitehead Institute for Biomedical Research, priority 2015, dated 2022).

This test addresses PHGDH (Homo sapiens (Human), UniProt O43175). As to the kind of experiment: PHGDH inhibition, coupled assay with PSAT1/PSPH and diaphorase/resazurin readout. It is filed as biochemical. As to conditions: Table E9; mixture with PSAT1, PSPH; diaphorase/resazurin reporter.

SMILES strings stand for the structures.

Sequence of PHGDH (O43175 whole entry): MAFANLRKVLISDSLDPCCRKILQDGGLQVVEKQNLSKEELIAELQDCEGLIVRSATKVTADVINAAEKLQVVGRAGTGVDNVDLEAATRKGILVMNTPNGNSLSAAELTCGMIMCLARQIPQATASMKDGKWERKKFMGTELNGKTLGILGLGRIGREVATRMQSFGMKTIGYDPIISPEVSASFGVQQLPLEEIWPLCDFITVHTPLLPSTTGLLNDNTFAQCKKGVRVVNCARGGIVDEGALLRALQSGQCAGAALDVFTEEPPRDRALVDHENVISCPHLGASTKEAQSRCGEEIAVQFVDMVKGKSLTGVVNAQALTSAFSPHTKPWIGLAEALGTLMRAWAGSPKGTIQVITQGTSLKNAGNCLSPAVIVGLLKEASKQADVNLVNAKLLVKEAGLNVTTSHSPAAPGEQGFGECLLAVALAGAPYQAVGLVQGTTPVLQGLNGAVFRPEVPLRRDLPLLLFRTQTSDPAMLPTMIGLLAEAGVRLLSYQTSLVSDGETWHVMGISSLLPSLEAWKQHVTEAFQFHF

On to `Cc1ccnc(NC(=O)N2CCN(c3cccc(C(F)(F)F)c3)CC2)c1` [Compound 3], for which the half-maximal inhibitory concentration (IC50) was at least 20 µM.

For `Cc1ccnc(NC(=S)N2CCN(c3ccc(C(F)(F)F)cc3)CC2)c1` [Compound 4], the IC50 was in the range of 5 to 10 µM.

Take `Cc1ccnc(NC(=S)N2CCN(c3cccc([N+](=O)[O-])c3)CC2)c1` [Compound 5]: the 50% inhibitory concentration (IC50) was at least 20 µM.

On to `Cc1ccnc(NC(=S)N2CCN(c3cccc(N(C)C)c3)CC2)c1` [Compound 6], for which the IC50 is 10 to 20 µM.

`Cc1ccnc(NC(=S)N2CCN(c3ccc(F)cc3)CC2)c1` [Compound 7]: the IC50 is at least 20 µM.

Regarding `Cc1ccnc(NC(=S)N2CCN(c3ccc(Cl)cc3)CC2)c1` [Compound 8], the IC50 is at least 20 µM.

With `Cc1ccnc(NC(=S)N2CCN(c3ccc(Br)cc3)CC2)c1` [Compound 9], the IC50 was at least 20 µM.

Take `Cc1ccnc(NC(=S)N2CCN(c3ccc(C#N)cc3)CC2)c1` [Compound 10]: the concentration for half-maximal inhibition (IC50) was at least 20 µM.

In the case of `Cc1ccc(N2CCN(C(=S)Nc3cc(C)ccn3)CC2)cc1` [Compound 11], the IC50 was at least 20 µM.

For the molecule `COc1ccc(N2CCN(C(=S)Nc3cc(C)ccn3)CC2)cc1` [Compound 12], the concentration for half-maximal inhibition (IC50) was at least 20 µM.

`Cc1ccnc(NC(=S)N2CCN(c3ccc(O)cc3)CC2)c1` [Compound 13]: the IC50 was at least 20 µM.

As for `CC(=O)c1ccc(N2CCN(C(=S)Nc3cc(C)ccn3)CC2)cc1` [Compound 14], the IC50 was at least 20 µM.

As to `CCN1CCN(C(=S)c2ccc(O)cc2)CC1` [Compound 15], the IC50 is at least 20 µM.

For `Cc1ccnc(NC(=S)N2CCN(C)CC2)c1` [Compound 16], the IC50 is at least 20 µM.

In the case of `Cc1ccnc(NC(=S)N2CCN(c3ccc(N)cc3)CC2)c1` [Compound 17], the IC50 is at least 20 µM.

Turning to `CC(=O)N1CCN(C(=S)Nc2cc(C)ccn2)CC1` [Compound 18], the IC50 is at least 20 µM.

As for `CSC(Cc1ccc(Cl)cc1)C(=O)Nc1ccc(Cl)cc1C(=O)O` (stereo not shown) [Compound 19], the IC50 is at least 20 µM.

For `CC(Cc1ccccc1)C(=O)Nc1ccc(Cl)cc1C(=O)O` (stereo not shown) [Compound 20], the half-inhibitory concentration (IC50) is at least 20 µM.

For the molecule `Cc1ccnc(NC(=S)NCCN(C)c2cccc(C(F)(F)F)c2)c1` [Compound 21], the IC50 is at least 20 µM.

As for `Cc1ccnc(NC(=S)NCCNc2cccc(C(F)(F)F)c2)c1` [Compound 22], the 50% inhibitory concentration (IC50) is 5 to 10 µM.

As for `Cc1cccc(NC(=S)N2CCN(c3cccc(C(F)(F)F)c3)CC2)c1` [Compound 23], the IC50 is at least 20 µM.

`Cc1cc(C)nc(NC(=S)N2CCN(c3cccc(C(F)(F)F)c3)CC2)c1` [Compound 24]: the half-maximal inhibitory concentration (IC50) fell in the range of 5 to 10 µM.

Take `FC(F)(F)c1ccc(N2CCN(C(=S)Nc3ccccn3)CC2)cc1` [Compound 25]: the IC50 lay within 5 to 10 µM.

With `FC(F)(F)c1cccc(N2CCN(C(=S)Nc3cc(C(F)(F)F)ccn3)CC2)c1` [Compound 26], the half-inhibitory concentration (IC50) is 5 to 10 µM.

In the case of `OCc1ccnc(NC(=S)N2CCN(c3cccc(C(F)(F)F)c3)CC2)c1` [Compound 27], the concentration for half-maximal inhibition (IC50) is at least 20 µM.

Take `COC(=O)c1ccnc(NC(=S)N2CCN(c3cccc(C(F)(F)F)c3)CC2)c1` [Compound 28]: the half-maximal inhibitory concentration (IC50) was under 5 µM.

Regarding `Cc1cncc(NC(=S)N2CCN(c3cccc(C(F)(F)F)c3)CC2)c1` [Compound 29], the IC50 was in the range of 5 to 10 µM.

With `FC(F)(F)c1cccc(N2CCN(C(=S)Nc3cccnc3)CC2)c1` [Compound 30], the IC50 is under 5 µM.

Regarding `FC(F)(F)c1cccc(N2CCN(C(=S)Nc3ccncc3)CC2)c1` [Compound 31], the 50% inhibitory concentration (IC50) lay in the range of 10 to 20 µM.

Regarding `FC(F)(F)c1cccc(N2CCN(C(=S)Nc3nccc4ccccc34)CC2)c1` [Compound 32], the IC50 fell in the range of 5 to 10 µM.

As to `FC(F)(F)c1cccc(N2CCN(C(=S)Nc3ccc4ccccc4n3)CC2)c1` [Compound 34], the half-maximal inhibitory concentration (IC50) lay within 10 to 20 µM.

As for `FC(F)(F)c1cccc(N2CCN(C(=S)Nc3ccccn3)CC2)c1` [Compound 35], the concentration for half-maximal inhibition (IC50) lay in the range of 5 to 10 µM.

Regarding `COc1ccnc(NC(=S)N2CCN(c3cccc(C(F)(F)F)c3)CC2)c1` [Compound 36], the IC50 was under 5 µM.

`COc1ccc(NC(=S)N2CCN(c3cccc(C(F)(F)F)c3)CC2)nc1` [Compound 37]: the IC50 was at least 20 µM.

On to `COc1cccc(NC(=S)N2CCN(c3cccc(C(F)(F)F)c3)CC2)n1` [Compound 38], for which the 50% inhibitory concentration (IC50) is 5 to 10 µM.

With `Cc1cccc(N2CCN(C(=S)Nc3cc(C)ccn3)CC2)c1` [Compound 39], the IC50 was in the range of 10 to 20 µM.

Take `Cc1ccnc(NC(=S)N2CCN(c3ccccc3C(F)(F)F)CC2)c1` [Compound 41]: the IC50 is 5 to 10 µM.

Regarding `Cc1ccnc(NC(=S)N[C@@H]2CCN(c3cccc(C(F)(F)F)c3)C2)c1` [Compound 42], the half-maximal inhibitory concentration (IC50) was at least 20 µM.

For `Cc1ccnc(NC(=S)N[C@H]2CCN(c3cccc(C(F)(F)F)c3)C2)c1` [Compound 43], the half-maximal inhibitory concentration (IC50) was at least 20 µM.

Take `Cc1ccnc(NC(=S)N2CCN(c3cccc(C(F)(F)F)c3)C2)c1` [Compound 44]: the IC50 was at least 20 µM.

In the case of `Cc1ccnc(NC(=S)N2CC3CN(c4cccc(C(F)(F)F)c4)CC3C2)c1` (stereo not shown) [Compound 45], the IC50 fell in the range of 10 to 20 µM.

In the case of `Cc1ccnc(NC(=S)Nc2cccc(C(F)(F)F)c2)c1` [Compound 46], the IC50 was in the range of 10 to 20 µM.

Consider `Cc1ccnc(NC(=S)NC2CN(c3cccc(C(F)(F)F)c3)C2)c1` [Compound 47], for which the IC50 was at least 20 µM.

For the molecule `Cc1ccnc(NC(=S)N2CCN(c3cccc(C(F)(F)F)c3)C[C@@H]2C)c1` [Compound 48], the IC50 was in the range of 10 to 20 µM.

On to `Cc1ccnc(NC(=S)N2CCCN(c3cccc(C(F)(F)F)c3)CC2)c1` [Compound 49], for which the concentration for half-maximal inhibition (IC50) fell in the range of 10 to 20 µM.

For `Cc1ccnc(NC(=S)NC2CCN(c3cccc(C(F)(F)F)c3)CC2)c1` [Compound 50], the half-maximal inhibitory concentration (IC50) lay in the range of 10 to 20 µM.

`Cc1ccnc(NC(=S)N2CCc3ccccc3C2)c1` [Compound 51]: the half-inhibitory concentration (IC50) was at least 20 µM.

For `Cc1ccnc(N(C)C(=S)N2CCN(c3cccc(C(F)(F)F)c3)CC2)c1` [Compound 52], the half-maximal inhibitory concentration (IC50) is at least 20 µM.

Regarding `Cc1ccnc(NC(=S)N2CCNCC2)c1` [Compound 53], the concentration for half-maximal inhibition (IC50) is at least 20 µM.

As to `Cc1ccnc(NC(=S)NC2CCCN(c3cccc(C(F)(F)F)c3)C2)c1` (stereo not shown) [Compound 54], the half-maximal inhibitory concentration (IC50) was in the range of 5 to 10 µM.

With `Cc1ccnc(NC(=S)N2CC[C@@H](Nc3cccc(C(F)(F)F)c3)C2)c1` [Compound 55], the IC50 was at least 20 µM.

For `Cc1ccnc(NC(=S)N2CCC(Nc3cccc(C(F)(F)F)c3)CC2)c1` [Compound 56], the IC50 lay in the range of 5 to 10 µM.

With `Cc1ccnc(NC(=S)N2CCCC(Nc3cccc(C(F)(F)F)c3)C2)c1` (stereo not shown) [Compound 58], the IC50 is 5 to 10 µM.

On to `Cc1ccnc(NC(=S)N2CCc3cccc(C(F)(F)F)c3C2)c1` [Compound 59], for which the half-maximal inhibitory concentration (IC50) lay in the range of 10 to 20 µM.

Consider `Cc1ccnc(NC(=S)N2CCCc3ccc(C(F)(F)F)cc32)c1` [Compound 60], for which the IC50 was at least 20 µM.

Turning to `Cc1ccnc(NC(=S)N2CCc3cc(C(F)(F)F)ccc3C2)c1` [Compound 61], the half-maximal inhibitory concentration (IC50) was 10 to 20 µM.

As for `Cc1ccnc(C(=S)N2CCN(c3cccc(C(F)(F)F)c3)CC2)c1` [Compound 62], the IC50 is at least 20 µM.

In the case of `Cc1cc(C)nc(NC(=S)N2CCN(c3cc(C(F)(F)F)cc(C(F)(F)F)c3)CC2)c1` [Compound 64], the half-inhibitory concentration (IC50) fell in the range of 5 to 10 µM.

As to `Cc1cc(C)nc(NC(=S)N2CCN(c3cc(Cl)cc(Cl)c3)CC2)c1` [Compound 65], the half-maximal inhibitory concentration (IC50) lay within 5 to 10 µM.

As to `Cc1cc(C)nc(NC(=S)N2CCN(c3cccc(C#N)c3)CC2)c1` [Compound 66], the half-maximal inhibitory concentration (IC50) fell in the range of 10 to 20 µM.

As for `Cc1cc(C)nc(NC(=S)N2CCN(c3ccc(Cl)cc3Cl)CC2)c1` [Compound 68], the IC50 lay within 5 to 10 µM.

For the molecule `Cc1cc(C)nc(NC(=S)N2CCN(c3cccc4ccccc34)CC2)c1` [Compound 69], the IC50 is 5 to 10 µM.

Regarding `Cc1cc(C)nc(NC(=S)N2CCN(c3ccc4ccccc4c3)CC2)c1` [Compound 70], the half-maximal inhibitory concentration (IC50) lay within 5 to 10 µM.

Take `Cc1cc(C)nc(NC(=S)N2CCN(c3ccccn3)CC2)c1` [Compound 77]: the IC50 is at least 20 µM.

Consider `Cc1cc(C)nc(NC(=S)N2CCN(c3ncccc3Cl)CC2)c1` [Compound 79], for which the IC50 was 10 to 20 µM.

For the molecule `Cc1cc(C)nc(NC(=S)N2CCN(c3ncccn3)CC2)c1` [Compound 80], the 50% inhibitory concentration (IC50) was at least 20 µM.

For `Cc1cc(C)nc(NC(=S)N2CCN(c3ncc(Cl)cc3Cl)CC2)c1` [Compound 81], the IC50 is 5 to 10 µM.

As to `Cc1cc(C)nc(NC(=S)N2CCN(c3ccc(N[S+](C)(=O)[O-])nn3)CC2)c1` [Compound 83], the 50% inhibitory concentration (IC50) is at least 20 µM.

Take `Cc1cc(C)nc(NC(=S)N2CCN(c3ccc(N4CCCC4)nn3)CC2)c1` [Compound 84]: the 50% inhibitory concentration (IC50) was at least 20 µM.

With `Cc1cc(C)nc(NC(=S)N2CCN(c3ccc4ccccc4n3)CC2)c1` [Compound 85], the IC50 was in the range of 10 to 20 µM.

For `Cc1cc(C)nc(NC(=S)N2CCN(c3coc4ccccc34)CC2)c1` [Compound 86], the concentration for half-maximal inhibition (IC50) is 10 to 20 µM.

In the case of `Cc1cc(C)nc(NC(=S)N2CCN(c3nccs3)CC2)c1` [Compound 87], the IC50 is at least 20 µM.

On to `Cc1cc(C)nc(NC(=S)N2CCN(c3ccccc3C#N)CC2)c1` [Compound 89], for which the 50% inhibitory concentration (IC50) fell in the range of 10 to 20 µM.

As for `Cc1cc(C)nc(NC(=S)N2CCN(c3ccc(F)cc3F)CC2)c1` [Compound 90], the 50% inhibitory concentration (IC50) is 5 to 10 µM.

For the molecule `Cc1cc(C)nc(NC(=S)N2CCN(c3ccc(Cl)c(Cl)c3)CC2)c1` [Compound 92], the half-maximal inhibitory concentration (IC50) is at least 20 µM.

As to `Cc1cc(C)nc(NC(=S)N2CCN(c3cccc(Cl)c3Cl)CC2)c1` [Compound 93], the IC50 is 5 to 10 µM.

Turning to `Cc1cc(C)nc(NC(=S)N2CCN(Cc3c(F)cccc3Cl)CC2)c1` [Compound 94], the half-inhibitory concentration (IC50) was 5 to 10 µM.

`Cc1cc(C)nc(N/C(=N/C#N)N2CCN(c3cccc(C(F)(F)F)c3)CC2)c1` [Compound 95]: the IC50 was at least 20 µM.

As for `Cc1cc(C)nc(NC(=C(C#N)C#N)N2CCN(c3cccc(C(F)(F)F)c3)CC2)c1` [Compound 96], the IC50 was at least 20 µM.

Turning to `Cc1cc(C)nc(NC(=S)N2CCN([S+](=O)([O-])c3cccc(C(F)(F)F)c3)CC2)c1` [Compound 100], the IC50 was under 5 µM.

For the molecule `Cc1cc(C)nc(NC(=S)N2CCN(c3ccc(C(=O)O)cc3)CC2)c1` [Compound 101], the half-inhibitory concentration (IC50) was at least 20 µM.

For the molecule `Cc1cc(C)nc(NC(=S)N2CCN(c3cccc(C(=O)O)c3)CC2)c1` [Compound 102], the half-inhibitory concentration (IC50) was at least 20 µM.

A word on the IC50: it is the midpoint of a concentration-inhibition curve.
